Data taken from paper PMC3909264, “A Novel Acylaminoimidazole Derivative, WN1316, Alleviates Disease Progression via Suppression of Glial Inflammation in ALS Mouse Model” (PLoS ONE, 2014).

How the values were obtained:
[1] = Water solubility (stated property); type: physicochemical
[2] = Pharmacokinetics of WN-compounds in mice (brain and serum concentration, HPLC); type: in vivo, mouse (C57BL/6N)
Description: Wild type mice at 8 weeks (male, C57BL/6N) were used for the analysis of CPN-9, WN1303R, WN1312, WN1315 and WN1316 pharmacokinetics. CPN-9 was suspended in 0.5% carboxymethyl cellulose (CMC)-Na (carmellose sodium, Maruishi Pharmaceutical Co., Ltd.), while WN1303R, WN1312 and WN1316 were dissolved in Milli-Q purified water (MQ water) and WN1315 was dissolved in 0.25 N HCl. CPN-9 (100 mg/kg body weight) and the four WN-compounds (50 mg/kg body weight) were injected intragastrically (i.g.). After 15 min, 30 min, 1 h, 2 h, 4 h, 6 h, and 8 h, blood was collected from heart of each mouse anesthetized with 2% isoflurane by inhalation or 4% halothane in a mixture of N2O/O2 (70∶30). Mice were thereafter perfused transcardially with physiological saline containing 10% heparin under anesthesia, and the whole brain was removed. Each blood sample was centrifuged at 1,000×g for 10 min at 4°C, and the serum fraction was collected. The brain was frozen in liquid nitrogen, and was cryopreserved until use.
We mixed serum with deproteinization buffer (0.05 M H2SO4, 2.5 M K2CO3, and […]), and collected the organic layer after centrifugation at 1,500×g for 10 min. The organic layer was mixed with 0.05 M H2SO4, and then, after centrifugation at 1,500×g for 10 min, the water layer was collected. After the addition of methanol, each serum derived sample was subjected to HPLC.
Mouse whole brain was homogenized with acetonitrile and left at −80°C for 10 min. The supernatant was collected after centrifugation at 10,000×g for 10 min at 4°C and was dried under vacuum. The dried sample was re-dissolved in methanol and mixed with two volumes of 10 mM phosphate buffer (pH7.0), after which the supernatant was collected by centrifugation at 10,000×g for 10 min at 4°C and then left at −80°C for 10 min. To further remove debris, the supernatant was filtered (0.45 µm filter), centrifuged (at 10,000×g for 10 min at 4°C), filtered (0.22 µm filter) and finally centrifuged again. Each sample solution from brain was subjected to HPLC.
The concentrations of CPN-9 and WN1316 in the serum and brain samples were determined by HPLC on a CAPCELL PAK C18 column (SHISEIDO) with 50% acetonitrile (CPN-9), 40% acetonitrile (WN1316) or 45% acetonitrile (WN1303R, WN1312, and WN1315) in 10 mM phosphate buffer (pH 7.0).

[3] = design: method as in PMID 23000247; conditions: cited from earlier work
[4] = C57BL/6N mice, intragastric, 100 mg/kg in 0.5% CMC-Na, n = 3, mean ± SD

water solubility (in words) [1]: hardly water soluble
AUC0–8: Brain [2, 4]: 1.0±1.3 µg⋅h/g
AUC0–8: Serum [2, 4]: 5.9±0.8 µg⋅h/ml
Structure (SMILES): Cc1cc(C)c(OCC(=O)Nc2nc(-c3ccccn3)cs2)c(C)c1 [CPN-9, N-(4-(2-pyridyl)(1,3-thiazol-2-yl))-2-(2,4,6-trimethylphenoxy) acetamide, reference compound]
BBB permeability (in words) ([2]; mouse, in vivo): very poor blood-brain-barrier (BBB) permeability
toxicity (in words) [3]: considerable toxicity
